Measurements taken from EP4790066A1, “GLP-1R/GIPR/GCGR TRIPLE AGONIST ANALOGUE AND USE THEREOF” (Shenzhen Bay Laboratory, priority 2023, dated 2025).
*1 amine or outer side, *2 acyl side, *3 side chain or, on linkers, in order; H or OH if unused. Where a SMILES comes first, the peptide text is derived from it. Bridges are numbered along the chain shown (N, C = ends). [ ]: non-standard residue; d: D form. X1 = O=C(O)CCCCCCCCCCCCCCCCCCC(=O)N[C@@H](CCCCNC(=O)COCCOCCNC(=O)COCCOCCNC(=O)CCC(=O)N(CCNC(=O)C[*:1])CCNC(=O)C[*:2])C(=O)O; Phe(2-F) = N[C@@H](Cc1ccccc1F)C(=O)O; tBuAla = CC(C)(C)C[C@H](N)C(=O)O; αMeL = CC(C)C[C@](C)(N)C(=O)O; αMeK = C[C@](N)(CCCCN)C(=O)O; αMeS = C[C@](N)(CO)C(=O)O; Aib = CC(C)(N)C(=O)O

Experiments:
Format in all cases: cell-based
GCGR = biological target: T1, GCGR (Homo sapiens, UniProt P47871); test: CreLuc method (CRE-luciferase reporter), 293HEK/pGM-CREB-L-Luc/GCGR pool; conditions: 6 h incubation, read-out: EC50 (pM) for each receptor GCGR
T1 construct: expressed in transfected cells
T1 sequence (P47871 26-477, species assumed): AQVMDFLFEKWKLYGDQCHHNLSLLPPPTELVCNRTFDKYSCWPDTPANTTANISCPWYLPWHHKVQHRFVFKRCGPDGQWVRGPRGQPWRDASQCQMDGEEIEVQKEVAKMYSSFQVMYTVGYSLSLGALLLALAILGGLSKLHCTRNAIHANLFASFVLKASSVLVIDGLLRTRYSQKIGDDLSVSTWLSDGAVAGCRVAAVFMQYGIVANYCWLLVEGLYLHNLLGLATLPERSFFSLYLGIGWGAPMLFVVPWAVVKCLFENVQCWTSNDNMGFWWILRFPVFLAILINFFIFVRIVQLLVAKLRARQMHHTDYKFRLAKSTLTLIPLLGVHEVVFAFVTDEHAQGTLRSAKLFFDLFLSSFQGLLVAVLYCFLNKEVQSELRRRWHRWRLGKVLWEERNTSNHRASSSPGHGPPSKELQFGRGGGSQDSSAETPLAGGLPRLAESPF
Protocol: (§1) 1. Insulinotropic analogues can bind to the target receptor on the cell membrane, activate the cAMP response element (CRE), and initiate the expression of downstream luciferase. The expression level is positively correlated with the biological activity of the analogue being tested. After activation, luciferase substrate is added for chemiluminescence detection, and the luminescence intensity is determined to characterize the biological activity of the test compounds. Therefore, the target peptide derivatives (or polypeptide derivatives, i.e., TG1-TG94) prepared in Example 1 and Example 2 can be tested by the CreLuc method. The specific steps are as follows: The stably transfected cell lines HEK293/pGM-CREB-L-Luc/GLP-1R pool, HEK293/pGM-CREB-L-Luc/GIPR pool, and 293HEK/pGM-CREB-L-Luc/GCGR pool were constructed. […] The corresponding test cells were digested (1 min), dispersed by pipetting, and centrifuged (1000 rpm, 5 min). The culture medium was discarded, and the cells were resuspended in freestyle medium, centrifuged again, collected, and counted. The cells were then diluted to a cell density of 5 x 10^5 cells/mL and then added to the detection wells of a 384-well plate (40 µL/20,000 cells/well). Echo was used to add the corresponding analyte dilution series. The cell plate was incubated at 37°C and 5% CO2 for 6 h, then ONE-GLO (20 µL/well) was added for detection. It was kept in the dark for 3 min, then a chemiluminescent microplate reader was used for determination. The plate was read within 30 min, and the determination results were recorded. […] Table 3: EC50 values for target peptide derivatives

GIPR = biological target: T2, GIPR (Homo sapiens, UniProt P48546); test: CreLuc method (CRE-luciferase reporter), HEK293/pGM-CREB-L-Luc/GIPR pool; conditions: 6 h incubation, read-out: EC50 (pM) for each receptor GIPR
T2 construct: expressed in transfected cells
T2 sequence (P48546 22-466): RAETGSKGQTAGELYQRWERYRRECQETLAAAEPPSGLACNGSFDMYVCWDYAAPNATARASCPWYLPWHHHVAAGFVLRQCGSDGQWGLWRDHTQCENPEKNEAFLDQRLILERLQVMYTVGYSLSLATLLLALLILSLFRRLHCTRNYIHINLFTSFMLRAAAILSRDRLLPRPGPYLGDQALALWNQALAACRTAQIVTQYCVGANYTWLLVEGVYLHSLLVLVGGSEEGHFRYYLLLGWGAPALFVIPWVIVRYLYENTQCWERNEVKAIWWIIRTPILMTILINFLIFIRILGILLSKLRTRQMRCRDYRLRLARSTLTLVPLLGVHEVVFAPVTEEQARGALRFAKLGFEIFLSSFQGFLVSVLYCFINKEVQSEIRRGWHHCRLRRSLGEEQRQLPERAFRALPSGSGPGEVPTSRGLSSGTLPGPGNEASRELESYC
Protocol: as §1

GLP-1R = biological target: T3, GLP-1R (Homo sapiens, UniProt P43220); test: CreLuc method (CRE-luciferase reporter), HEK293/pGM-CREB-L-Luc/GLP-1R pool; conditions: 6 h incubation, read-out: EC50 (pM) for each receptor GLP-1R
T3 construct: expressed in transfected cells
T3 sequence (P43220 24-463, species assumed): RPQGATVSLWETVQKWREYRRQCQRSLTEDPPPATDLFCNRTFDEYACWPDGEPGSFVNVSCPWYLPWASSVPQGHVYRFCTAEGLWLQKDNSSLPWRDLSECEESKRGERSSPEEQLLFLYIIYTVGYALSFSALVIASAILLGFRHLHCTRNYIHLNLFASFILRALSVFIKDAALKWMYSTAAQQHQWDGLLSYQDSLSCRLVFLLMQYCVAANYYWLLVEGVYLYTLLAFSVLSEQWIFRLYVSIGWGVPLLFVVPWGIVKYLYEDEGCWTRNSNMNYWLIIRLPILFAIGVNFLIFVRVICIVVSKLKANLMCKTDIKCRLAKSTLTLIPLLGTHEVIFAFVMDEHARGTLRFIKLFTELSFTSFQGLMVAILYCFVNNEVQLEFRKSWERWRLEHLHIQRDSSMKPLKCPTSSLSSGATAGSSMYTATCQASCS
Protocol: as §1

## CC[C@H](C)[C@@H]1NC(=O)[C@H](Cc2ccccc2)NC(=O)[C@@H](NC(=O)[C@H](CCC(N)=O)NC(=O)[C@H](CCC(N)=O)NC(=O)[C@H](C)NC(=O)[C@H](CCCCNC(C)=O)NC(=O)[C@](C)(CCCCN)NC(=O)[C@H](CC(=O)O)NC(=O)[C@H](CC(C)C)NC(=O)[C@H](CC(C)C)NC(=O)[C@@H](NC(=O)[C@](C)(CO)NC(=O)[C@H](Cc2ccc(O)cc2)NC(=O)[C@H](CC(=O)O)NC(=O)[C@H](CO)NC(=O)[C@@H](NC(=O)[C@H](Cc2ccccc2F)NC(=O)[C@@H](NC(=O)CNC(=O)[C@H](CCC(N)=O)NC(=O)C(C)(C)NC(=O)[C@@H](N)Cc2ccc(O)cc2)[C@@H](C)O)[C@@H](C)O)[C@@H](C)CC)CSCC(=O)NCCN(C(=O)CCC(=O)NCCOCCOCC(=O)NCCOCCOCC(=O)NCCCC[C@H](NC(=O)CCCCCCCCCCCCCCCCCCC(=O)O)C(=O)O)CCNC(=O)CSC[C@@H](C(=O)NCC(=O)NCC(=O)N2CCC[C@H]2C(=O)N[C@@H](CO)C(=O)N[C@@H](CO)C(=O)NCC(=O)N[C@@H](C)C(=O)N2CCC[C@H]2C(=O)N2CCC[C@H]2C(=O)N2CCC[C@H]2C(=O)N[C@@H](CO)C(N)=O)NC(=O)[C@H](CC(C)C)NC(=O)[C@H](CC(C)C)NC(=O)[C@H](Cc2ccc(O)cc2)NC(=O)[C@H](CCC(=O)O)NC1=O [TG56] (H-Y[Aib]QGT[Phe(2-F)]TSDY[αMeS]ILLD[αMeK]K(Ac)AQQCFIEYLLCGGPSSGAPPPS-NH2; linker 21-28 via X1)
GCGR
  EC50: 681 pM
GIPR
  EC50: 39.5 pM
GLP-1R
  EC50: 197 pM

## CC[C@H](C)[C@@H]1NC(=O)[C@H](Cc2ccccc2)NC(=O)[C@@H](NC(=O)C(C)(C)NC(=O)[C@H](CCC(N)=O)NC(=O)[C@H](C)NC(=O)[C@H](CCCCNC(C)=O)NC(=O)[C@H](CCCCN)NC(=O)[C@H](CC(=O)O)NC(=O)[C@H](CC(C)C)NC(=O)[C@](C)(CC(C)C)NC(=O)[C@@H](NC(=O)[C@H](CO)NC(=O)[C@H](Cc2ccc(O)cc2)NC(=O)[C@H](CC(=O)O)NC(=O)[C@H](CO)NC(=O)[C@@H](NC(=O)[C@H](Cc2ccccc2)NC(=O)[C@@H](NC(=O)CNC(=O)[C@H](CCC(N)=O)NC(=O)[C@@H](CO)NC(=O)[C@@H](N)Cc2ccc(O)cc2)[C@@H](C)O)[C@@H](C)O)[C@@H](C)CC)CSCC(=O)NCCN(C(=O)CCC(=O)NCCOCCOCC(=O)NCCOCCOCC(=O)NCCCC[C@H](NC(=O)CCCCCCCCCCCCCCCCCCC(=O)O)C(=O)O)CCNC(=O)CSC[C@@H](C(=O)NCC(=O)NCC(=O)N2CCC[C@H]2C(=O)N[C@@H](CO)C(=O)N[C@@H](CO)C(=O)NCC(=O)N[C@@H](C)C(=O)N2CCC[C@H]2C(=O)N2CCC[C@H]2C(=O)N2CCC[C@H]2C(=O)N[C@@H](CO)C(N)=O)NC(=O)[C@H](CC(C)C)NC(=O)[C@H](CC(C)C)NC(=O)[C@H](Cc2ccc(O)cc2)NC(=O)[C@H](CCC(=O)O)NC1=O [TG22] (H-Y[dS]QGTFTSDYSI[αMeL]LDKK(Ac)AQ[Aib]CFIEYLLCGGPSSGAPPPS-NH2; linker 21-28 via X1)
GCGR
  EC50: 205 pM
GIPR
  EC50: 18.3 pM
GLP-1R
  EC50: 665 pM

## CC[C@H](C)[C@@H]1NC(=O)[C@H](Cc2ccccc2)NC(=O)[C@@H](NC(=O)C(C)(C)NC(=O)[C@H](CCC(N)=O)NC(=O)[C@H](C)NC(=O)[C@H](CCCCNC(C)=O)NC(=O)[C@H](CCCCN)NC(=O)[C@H](CC(=O)O)NC(=O)[C@H](CC(C)(C)C)NC(=O)[C@](C)(CC(C)C)NC(=O)[C@@H](NC(=O)[C@H](CO)NC(=O)[C@H](Cc2ccc(O)cc2)NC(=O)[C@H](CC(=O)O)NC(=O)[C@H](CO)NC(=O)[C@@H](NC(=O)[C@H](Cc2ccccc2)NC(=O)[C@@H](NC(=O)CNC(=O)[C@H](CCC(N)=O)NC(=O)C(C)(C)NC(=O)[C@@H](N)Cc2ccc(O)cc2)[C@@H](C)O)[C@@H](C)O)[C@@H](C)CC)CSCC(=O)NCCN(C(=O)CCC(=O)NCCOCCOCC(=O)NCCOCCOCC(=O)NCCCC[C@H](NC(=O)CCCCCCCCCCCCCCCCCCC(=O)O)C(=O)O)CCNC(=O)CSC[C@@H](C(=O)NCC(=O)NCC(=O)N2CCC[C@H]2C(=O)N[C@@H](CO)C(=O)N[C@@H](CO)C(=O)NCC(=O)N[C@@H](C)C(=O)N2CCC[C@H]2C(=O)N2CCC[C@H]2C(=O)N2CCC[C@H]2C(=O)N[C@@H](CO)C(N)=O)NC(=O)[C@H](CC(C)C)NC(=O)[C@H](CC(C)C)NC(=O)[C@H](Cc2ccc(O)cc2)NC(=O)[C@H](CCC(=O)O)NC1=O [TG26] (H-Y[Aib]QGTFTSDYSI[αMeL][tBuAla]DKK(Ac)AQ[Aib]CFIEYLLCGGPSSGAPPPS-NH2; linker 21-28 via X1)
GCGR
  EC50: 360 pM
GIPR
  EC50: 59.4 pM
GLP-1R
  EC50: 149 pM

## CC(=O)NCCCC[C@H](NC(=O)[C@H](CCC(=O)O)NC(=O)[C@H](CC(C)C)NC(=O)[C@H](Cc1ccc(O)cc1)NC(=O)[C@H](CCCCN)NC(=O)[C@H](CO)NC(=O)[C@H](Cc1ccc(O)cc1)NC(=O)[C@H](CC(=O)O)NC(=O)[C@H](CO)NC(=O)[C@@H](NC(=O)[C@H](Cc1ccccc1)NC(=O)[C@@H](NC(=O)CNC(=O)[C@H](Cc1c[nH]cn1)NC(=O)C(C)(C)NC(=O)[C@@H](N)Cc1c[nH]cn1)[C@@H](C)O)[C@@H](C)O)C(=O)N[C@@H](CCCCN)C(=O)N[C@@H](Cc1ccc(O)cc1)C(=O)N[C@@H](C)C(=O)NC(C)(C)C(=O)N[C@H]1CSCC(=O)NCCN(C(=O)CCC(=O)NCCOCCOCC(=O)NCCOCCOCC(=O)NCCCC[C@H](NC(=O)CCCCCCCCCCCCCCCCCCC(=O)O)C(=O)O)CCNC(=O)CSC[C@@H](C(=O)NCC(=O)NCC(=O)N2CCC[C@H]2C(=O)N[C@@H](CO)C(=O)N[C@@H](CO)C(=O)NCC(=O)N[C@@H](C)C(=O)N2CCC[C@H]2C(=O)N2CCC[C@H]2C(=O)N2CCC[C@H]2C(=O)N[C@@H](CO)C(N)=O)NC(=O)[C@H](CC(C)C)NC(=O)[C@H](CC(C)C)NC(=O)[C@H](Cc2c[nH]c3ccccc23)NC(=O)[C@H](CCC(N)=O)NC(=O)[C@H](C(C)C)NC(=O)[C@H](Cc2ccccc2)NC1=O [TG14] (H-H[Aib]HGTFTSDYSKYLEK(Ac)KYA[Aib]CFVQWLLCGGPSSGAPPPS-NH2; linker 21-28 via X1)
GCGR
  EC50: 277 pM
GIPR
  EC50: 752 pM
GLP-1R
  EC50: 311 pM

## CC[C@H](C)[C@@H]1NC(=O)[C@H](Cc2ccccc2)NC(=O)[C@@H](NC(=O)C(C)(C)NC(=O)[C@H](CCC(N)=O)NC(=O)[C@H](C)NC(=O)[C@H](CCCCNC(C)=O)NC(=O)[C@H](CCCCN)NC(=O)[C@H](CCC(=O)O)NC(=O)[C@H](CC(C)C)NC(=O)[C@](C)(CC(C)C)NC(=O)[C@@H](NC(=O)[C@H](CO)NC(=O)[C@H](Cc2ccc(O)cc2)NC(=O)[C@H](CC(=O)O)NC(=O)[C@H](CO)NC(=O)[C@@H](NC(=O)[C@H](Cc2ccccc2)NC(=O)[C@@H](NC(=O)CNC(=O)[C@H](CCC(N)=O)NC(=O)C(C)(C)NC(=O)[C@@H](N)Cc2ccc(O)cc2)[C@@H](C)O)[C@@H](C)O)[C@@H](C)CC)CSCC(=O)NCCN(C(=O)CCC(=O)NCCOCCOCC(=O)NCCOCCOCC(=O)NCCCC[C@H](NC(=O)CCCCCCCCCCCCCCCCCCC(=O)O)C(=O)O)CCNC(=O)CSC[C@@H](C(=O)NCC(=O)NCC(=O)N2CCC[C@H]2C(=O)N[C@@H](CO)C(=O)N[C@@H](CO)C(=O)NCC(=O)N[C@@H](C)C(=O)N2CCC[C@H]2C(=O)N2CCC[C@H]2C(=O)N2CCC[C@H]2C(=O)N[C@@H](CO)C(N)=O)NC(=O)[C@H](CC(C)C)NC(=O)[C@H](CC(C)C)NC(=O)[C@H](Cc2ccc(O)cc2)NC(=O)[C@H](CCC(=O)O)NC1=O [TG36]
GCGR
  EC50: 813 pM
GIPR
  EC50: 10.8 pM
GLP-1R
  EC50: 34.1 pM
